Experimental data: US6417187B2, “1,2,4-triazole based compounds that can be used as insecticides or acaricides and processes” (Dow AgroSciences LLC, priority 2000, dated 2002)

Legend:
Format in all cases: in vivo
[1] = test system: Sweetpotato Whitefly (Bemisia tabacia); assay: Insecticidal test for Sweetpotato Whitefly (cotton plant spray); conditions: 200 ppm spray on cotton plants, 13 days, reduction of large nymphs; for pest or weed control at 200 ppm: Bemisia, 312 h, read-out: WF: activity at 200 ppm against whitefly (% Control rating)
[2] = test system: Brown Planthopper (Nilaparvata lugens); assay: Insecticidal test for Brown Planthopper (rice seedling roots in test solution)
[3] = test system: cotton aphid (Aphis gossvpii); assay: Insecticidal test for cotton aphid (squash cotyledon spray); conditions: for pest or weed control at 50 ppm: 72 h, read-out: CA: activity at 50 ppm against cotton aphid (% Control rating)
[4] = test system: Green Leafhopper (Nephotettix cincticeps); assay: Insecticidal test for Green Leafhopper (rice seedling roots in test solution)
[5] = test system: beet armyworm (Spodoptera exigua); assay: Insecticidal test for beet armyworm (treated lepidopteran diet); conditions: 400 ppm, treated diet, second-instar larvae, 5 days
[6] = test system: cabbage looper (Trichoplusia ni); assay: Insecticidal test for cabbage looper (cabbage leaf-disc dip); conditions: 400 ppm, cabbage leaf-dip, 2nd instar larvae, 5 days
[7] = 10 ppm test solution, rice seedling roots, 3rd instar nymphs, mortality at 6 days
[8] = 50 ppm spray on infested squash cotyledons, 3 days, population reduction versus untreated

SMILES: Cn1nc(-c2c(F)cccc2Cl)nc1-c1sc(C#Cc2ccccn2)c(Cl)c1Cl [Compound 33]
- WF: activity at 200 ppm against whitefly (% Control rating) [1]: D (60-69)
- BPH: activity at 10 ppm against brown planthopper (% Control rating) [2, 7]: F (less than 50)
- CA: activity at 50 ppm against cotton aphid (% Control rating) [3, 8]: F (less than 50)
- GLH: activity at 10 ppm against green leafbopper (% Control rating) [4, 7]: F (less than 50)

SMILES: Cn1nc(-c2c(F)cccc2Cl)nc1-c1ccc(C#Cc2ccccc2)cc1 [Compound 70]
- WF: activity at 200 ppm against whitefly (% Control rating) [1]: F (less than 50)
- CA: activity at 50 ppm against cotton aphid (% Control rating) [3, 8]: C (70-79)

SMILES: Cn1nc(-c2c(F)cccc2Cl)nc1-c1ccc(C#Cc2ccccc2)s1 [Compound 68]
- WF: activity at 200 ppm against whitefly (% Control rating) [1]: F (less than 50)
- BPH: activity at 10 ppm against brown planthopper (% Control rating) [2, 7]: F (less than 50)
- CA: activity at 50 ppm against cotton aphid (% Control rating) [3, 8]: A (90-100)
- GLH: activity at 10 ppm against green leafbopper (% Control rating) [4, 7]: F (less than 50)

SMILES: Cc1ccc(C#Cc2sc(-c3nc(-c4c(F)cccc4Cl)nn3C)c(Cl)c2Cl)nc1 [Compound 58]
- WF: activity at 200 ppm against whitefly (% Control rating) [1]: F (less than 50)
- BPH: activity at 10 ppm against brown planthopper (% Control rating) [2, 7]: F (less than 50)
- CA: activity at 50 ppm against cotton aphid (% Control rating) [3, 8]: F (less than 50)
- GLH: activity at 10 ppm against green leafbopper (% Control rating) [4, 7]: F (less than 50)

SMILES: CCC#Cc1sc(-c2nc(-c3c(F)cccc3Cl)nn2C)c(Cl)c1Cl [Compound 5]
- pest or weed control at 200 ppm [1]: < 50%
- BPH: activity at 10 ppm against brown planthopper (% Control rating) [2, 7]: F (less than 50)
- pest or weed control at 50 ppm [3, 8]: 80 to 89%
- GLH: activity at 10 ppm against green leafbopper (% Control rating) [4, 7]: F (less than 50)

SMILES: CCCc1ccc(C#Cc2sc(-c3nc(-c4ccccc4F)nn3C)c(Cl)c2Cl)cc1 [Compound 76]
- WF: activity at 200 ppm against whitefly (% Control rating) [1]: F (less than 50)
- BPH: activity at 10 ppm against brown planthopper (% Control rating) [2, 7]: F (less than 50)
- GLH: activity at 10 ppm against green leafbopper (% Control rating) [4, 7]: F (less than 50)
- BAW: activity at 400 ppm against beet armyworm (% Control rating) [5]: A (90-100)

SMILES: Cn1nc(-c2c(F)cccc2Cl)nc1-c1sc(C#Cc2ccc(C(F)(F)F)cn2)c(Cl)c1Cl [Compound 62]
- WF: activity at 200 ppm against whitefly (% Control rating) [1]: F (less than 50)
- BPH: activity at 10 ppm against brown planthopper (% Control rating) [2, 7]: F (less than 50)
- CA: activity at 50 ppm against cotton aphid (% Control rating) [3, 8]: F (less than 50)
- GLH: activity at 10 ppm against green leafbopper (% Control rating) [4, 7]: F (less than 50)

SMILES: Cn1nc(-c2c(F)cccc2Cl)nc1-c1sc(C#Cc2ccc(Cl)cn2)c(Cl)c1Cl [Compound 61]
- WF: activity at 200 ppm against whitefly (% Control rating) [1]: F (less than 50)
- BPH: activity at 10 ppm against brown planthopper (% Control rating) [2, 7]: F (less than 50)
- CA: activity at 50 ppm against cotton aphid (% Control rating) [3, 8]: F (less than 50)
- GLH: activity at 10 ppm against green leafbopper (% Control rating) [4, 7]: F (less than 50)

SMILES: C#Cc1sc(-c2nc(-c3c(F)cccc3Cl)nn2C)c(Cl)c1Cl [Compound 2, 1-Methyl-3-(2-chloro-6-fluorophenyl)-5-(3,4-dichloro-5-ethynvl-thien-2-yl)[1,2,4]triazole]
- pest or weed control at 400 ppm ([6]; Trichoplusia ni, 120 h, read-out: CL: activity at 400 ppm against cabbage looper (% Control rating)): < 50%
- BPH: activity at 10 ppm against brown planthopper (% Control rating) [2, 7]: D (60-69)
- pest or weed control at 50 ppm [3, 8]: 60 to 69%
- GLH: activity at 10 ppm against green leafbopper (% Control rating) [4, 7]: F (less than 50)

SMILES: CCCc1ccc(C#Cc2sc(-c3nc(-c4c(F)cccc4Cl)n[nH]3)c(Cl)c2Cl)cc1 [Compound 80]
- WF: activity at 200 ppm against whitefly (% Control rating) [1]: F (less than 50)

SMILES: Cc1ccncc1C#Cc1sc(-c2nc(-c3c(F)cccc3Cl)nn2C)c(Cl)c1Cl [Compound 21]
- BPH: activity at 10 ppm against brown planthopper (% Control rating) [2, 7]: F (less than 50)
- CA: activity at 50 ppm against cotton aphid (% Control rating) [3, 8]: F (less than 50)

SMILES: Cn1nc(-c2ccccc2F)nc1-c1sc(C#Cc2ccc(F)cc2)c(Cl)c1Cl [Compound 79]
- WF: activity at 200 ppm against whitefly (% Control rating) [1]: D (60-69)
- BPH: activity at 10 ppm against brown planthopper (% Control rating) [2, 7]: F (less than 50)
- CA: activity at 50 ppm against cotton aphid (% Control rating) [3, 8]: F (less than 50)
- GLH: activity at 10 ppm against green leafbopper (% Control rating) [4, 7]: F (less than 50)

SMILES: Cc1nc(-c2sc(C#Cc3ccc(F)cc3)c(Cl)c2Cl)n(C)n1 [Compound 78]
- pest or weed control at 200 ppm [1]: 60 to 69%
- BPH: activity at 10 ppm against brown planthopper (% Control rating) [2, 7]: F (less than 50)
- pest or weed control at 50 ppm [3, 8]: < 50%
- GLH: activity at 10 ppm against green leafbopper (% Control rating) [4, 7]: F (less than 50)
- pest or weed control at 400 ppm ([5]; Spodoptera exigua, 120 h, read-out: BAW: activity at 400 ppm against beet armyworm (% Control rating)): 90 to 100%

SMILES: Cc1ccnc(C#Cc2sc(-c3nc(-c4c(F)cccc4Cl)nn3C)c(Cl)c2Cl)c1 [Compound 43]
- WF: activity at 200 ppm against whitefly (% Control rating) [1]: F (less than 50)
- CA: activity at 50 ppm against cotton aphid (% Control rating) [3, 8]: F (less than 50)
- GLH: activity at 10 ppm against green leafbopper (% Control rating) [4, 7]: F (less than 50)

SMILES: COc1ccc(C#Cc2cccc(-c3nc(-c4c(Cl)cncc4Cl)nn3C)c2)cc1 [Compound 89]
- WF: activity at 200 ppm against whitefly (% Control rating) [1]: F (less than 50)
- CA: activity at 50 ppm against cotton aphid (% Control rating) [3, 8]: B (80-89)
- GLH: activity at 10 ppm against green leafbopper (% Control rating) [4, 7]: F (less than 50)

SMILES: Cc1cccc(C#Cc2sc(-c3nc(-c4c(F)cccc4Cl)nn3C)c(Cl)c2Cl)n1 [Compound 44]
- WF: activity at 200 ppm against whitefly (% Control rating) [1]: F (less than 50)
- CA: activity at 50 ppm against cotton aphid (% Control rating) [3, 8]: F (less than 50)

SMILES: Cn1nc(-c2c(F)cccc2Cl)nc1-c1sc(C#Cc2cnc(N3CCCCC3)nc2)c(Cl)c1Cl [Compound 64]
- CL: activity at 400 ppm against cabbage looper (% Control rating) [6]: A (90-100)
- WF: activity at 200 ppm against whitefly (% Control rating) [1]: F (less than 50)
- BAW: activity at 400 ppm against beet armyworm (% Control rating) [5]: B (80-89)

SMILES: CC=CC#Cc1sc(-c2nc(-c3c(F)cccc3Cl)nn2C)c(Cl)c1Cl [Compound 39]
- BPH: activity at 10 ppm against brown planthopper (% Control rating) ([2]; in vivo): F (key: A: 90-100; B: 80-89; C: 70-79; D: 60-69; E: 50-59; F: less than 50; G: inactive)
- CA: activity at 50 ppm against cotton aphid (% Control rating) ([3]; in vivo): B (key: A: 90-100; B: 80-89; C: 70-79; D: 60-69; E: 50-59; F: less than 50; G: inactive)
- GLH: activity at 10 ppm against green leafbopper (% Control rating) ([4]; in vivo): F (key: A: 90-100; B: 80-89; C: 70-79; D: 60-69; E: 50-59; F: less than 50; G: inactive)

SMILES: Cn1nc(-c2c(F)cccc2Cl)nc1-c1ccc(C#Cc2ccccc2F)s1 [Compound 69]
- WF: activity at 200 ppm against whitefly (% Control rating) [1]: F (less than 50)
- CA: activity at 50 ppm against cotton aphid (% Control rating) [3, 8]: E (50-59)
- GLH: activity at 10 ppm against green leafbopper (% Control rating) [4, 7]: F (less than 50)

SMILES: Cc1cc(C#Cc2sc(-c3nc(-c4c(F)cccc4Cl)nn3C)c(Cl)c2Cl)ccn1 [Compound 57]
- WF: activity at 200 ppm against whitefly (% Control rating) [1]: F (less than 50)
- GLH: activity at 10 ppm against green leafbopper (% Control rating) [4, 7]: F (less than 50)

SMILES: CCCc1ccc(C#Cc2ccc(-c3nc(-c4c(F)cccc4Cl)nn3C)cc2)cc1 [Compound 71]
- WF: activity at 200 ppm against whitefly (% Control rating) [1]: F (less than 50)
- BPH: activity at 10 ppm against brown planthopper (% Control rating) [2, 7]: F (less than 50)
- CA: activity at 50 ppm against cotton aphid (% Control rating) [3, 8]: A (90-100)

SMILES: Cn1nc(-c2c(F)cccc2Cl)nc1-c1sc(C#Cc2ccc(Br)cc2OC(F)(F)F)c(Cl)c1Cl [Compound 59]
- WF: activity at 200 ppm against whitefly (% Control rating) [1]: F (less than 50)
- BPH: activity at 10 ppm against brown planthopper (% Control rating) [2, 7]: F (less than 50)
- CA: activity at 50 ppm against cotton aphid (% Control rating) [3, 8]: F (less than 50)
- GLH: activity at 10 ppm against green leafbopper (% Control rating) [4, 7]: F (less than 50)

SMILES: Cc1cccnc1C#Cc1sc(-c2nc(-c3c(F)cccc3Cl)nn2C)c(Cl)c1Cl [Compound 45]
- WF: activity at 200 ppm against whitefly (% Control rating) [1]: F (less than 50)
- BPH: activity at 10 ppm against brown planthopper (% Control rating) [2, 7]: F (less than 50)
- CA: activity at 50 ppm against cotton aphid (% Control rating) [3, 8]: F (less than 50)
- GLH: activity at 10 ppm against green leafbopper (% Control rating) [4, 7]: F (less than 50)

SMILES: CCOc1ccc(C#Cc2ccc(-c3nc(-c4c(F)cccc4Cl)nn3C)s2)cc1 [Compound 66]
- WF: activity at 200 ppm against whitefly (% Control rating) [1]: F (less than 50)
- CA: activity at 50 ppm against cotton aphid (% Control rating) [3, 8]: B (80-89)
- GLH: activity at 10 ppm against green leafbopper (% Control rating) [4, 7]: F (less than 50)

SMILES: COc1ccc(C#Cc2ccc(-c3nc(-c4c(Cl)cncc4Cl)nn3C)cc2)cc1 [Compound 88]
- WF: activity at 200 ppm against whitefly (% Control rating) [1]: F (less than 50)
- CA: activity at 50 ppm against cotton aphid (% Control rating) [3, 8]: D (60-69)
- GLH: activity at 10 ppm against green leafbopper (% Control rating) [4, 7]: F (less than 50)

SMILES: C#Cc1ccc(-c2nc(-c3c(F)cccc3Cl)nn2C)c(Cl)c1Cl [Compound 97]
- pest or weed control at 200 ppm [1]: < 50%
- pest or weed control at 50 ppm [3, 8]: 80 to 89%

SMILES: Cn1nc(-c2c(F)cccc2Cl)nc1-c1sc(C#Cc2cc(Cl)c(OCC(F)(F)F)c(Cl)c2)c(Cl)c1Cl [Compound 22]
- WF: activity at 200 ppm against whitefly (% Control rating) [1]: D (60-69)
- BPH: activity at 10 ppm against brown planthopper (% Control rating) [2, 7]: F (less than 50)
- CA: activity at 50 ppm against cotton aphid (% Control rating) [3, 8]: F (less than 50)
- GLH: activity at 10 ppm against green leafbopper (% Control rating) [4, 7]: F (less than 50)

SMILES: CCCc1ccc(C#Cc2sc(-c3nc(C)nn3C)c(Cl)c2Cl)cc1 [Compound 75]
- WF: activity at 200 ppm against whitefly (% Control rating) [1]: F (less than 50)
- BPH: activity at 10 ppm against brown planthopper (% Control rating) [2, 7]: C (70-79)
- CA: activity at 50 ppm against cotton aphid (% Control rating) [3, 8]: F (less than 50)
- GLH: activity at 10 ppm against green leafbopper (% Control rating) [4, 7]: F (less than 50)

SMILES: C=C(C)C#Cc1sc(-c2nc(-c3c(F)cccc3Cl)nn2C)c(Cl)c1Cl [Compound 38]
- WF: activity at 200 ppm against whitefly (% Control rating) [1]: F (less than 50)
- CA: activity at 50 ppm against cotton aphid (% Control rating) [3, 8]: D (60-69)

SMILES: Cc1ccsc1C#Cc1sc(-c2nc(-c3c(F)cccc3Cl)nn2C)c(Cl)c1Cl [Compound 36]
- CL: activity at 400 ppm against cabbage looper (% Control rating) [6]: A (90-100)
- WF: activity at 200 ppm against whitefly (% Control rating) [1]: F (less than 50)
- BPH: activity at 10 ppm against brown planthopper (% Control rating) [2, 7]: D (60-69)
- CA: activity at 50 ppm against cotton aphid (% Control rating) [3, 8]: E (50-59)
- GLH: activity at 10 ppm against green leafbopper (% Control rating) [4, 7]: D (60-69)
